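Protocol summary: plate cells (96-well), add compound at 5 concentrations, incubate 48 h, interpolate endpoints linearly. TGI marks complete inhibition of growth.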

In the first test the test system is NCI-H226 lung. In words: NCI anticancer screen, dose series, 48 h.
The compound `CCCCCCCCCCC(C(=O)O)C1(C(=O)O)CCC(=O)O1` (stereo not given) registered a TGI above 100 µM.
Take `CC(=O)N1C(=O)/C(=C\C(=O)c2ccc([N+](=O)[O-])cc2)c2ccccc21`: the TGI was above 100 µM.

The test system of the next test is NCI-H23 lung. Description: NCI anticancer screen, dose series, 48 h.
`C/C(=N/NC(=S)Nc1ccc([N+](=O)[O-])cc1)c1cccc(/C(C)=N\NC(=S)Nc2ccc([N+](=O)[O-])cc2)n1` had a TGI of 12.2 µM.
The same measure, in the same setting: then `CCOC(=O)C1=[N+]([O-])OC2=C(O)CCCC21` (stereo not given), with above 100 µM; and `CCCCCCCCCCC(C(=O)O)C1(C(=O)O)CCC(=O)O1` (stereo not given), with above 100 µM.
On the same count and under the same terms, then `CC(=O)N1C(=O)/C(=C\C(=O)c2ccc([N+](=O)[O-])cc2)c2ccccc21`, with 88.7 µM.

The subject of a further test is NCI-H460 lung. In words: NCI anticancer screen, dose series, 48 h.
Compound `C/C(=N/NC(=S)Nc1ccc([N+](=O)[O-])cc1)c1cccc(/C(C)=N\NC(=S)Nc2ccc([N+](=O)[O-])cc2)n1` came in with a TGI of 9.11 µM.
Still for that read-out and setting: then `CCOC(=O)C1=[N+]([O-])OC2=C(O)CCCC21` (stereo not given), with above 100 µM.
Still for that read-out and setting: then `CCCCCCCCCCC(C(=O)O)C1(C(=O)O)CCC(=O)O1` (stereo not given), with above 100 µM; and `CC(=O)N1C(=O)/C(=C\C(=O)c2ccc([N+](=O)[O-])cc2)c2ccccc21`, with 39.9 µM.

Another test has as its system NCI-H522 lung. Description: NCI anticancer screen, dose series, 48 h.
As to `C/C(=N/NC(=S)Nc1ccc([N+](=O)[O-])cc1)c1cccc(/C(C)=N\NC(=S)Nc2ccc([N+](=O)[O-])cc2)n1`, the TGI was found to be 21.2 µM.
On the same count and under the same terms, as for `CCOC(=O)C1=[N+]([O-])OC2=C(O)CCCC21` (stereo not given), the figure is above 100 µM; as for `CCCCCCCCCCC(C(=O)O)C1(C(=O)O)CCC(=O)O1` (stereo not given), above 100 µM.
Still for that read-out and setting: as for `CC(=O)N1C(=O)/C(=C\C(=O)c2ccc([N+](=O)[O-])cc2)c2ccccc21`, the figure is 30.9 µM.

In a further test the test system is NCI/ADR-RES ovarian. In words: NCI anticancer screen, dose series, 48 h.
In turn, `C/C(=N/NC(=S)Nc1ccc([N+](=O)[O-])cc1)c1cccc(/C(C)=N\NC(=S)Nc2ccc([N+](=O)[O-])cc2)n1` came in with a TGI above 29.9 µM.
Same read-out and setting: then `CCOC(=O)C1=[N+]([O-])OC2=C(O)CCCC21` (stereo not given), with above 100 µM; and `CCCCCCCCCCC(C(=O)O)C1(C(=O)O)CCC(=O)O1` (stereo not given), with above 100 µM.
On the same count and under the same terms, as for `CC(=O)N1C(=O)/C(=C\C(=O)c2ccc([N+](=O)[O-])cc2)c2ccccc21`, the figure is above 100 µM.

A further test concerns OVCAR-3 ovarian. Description: NCI anticancer screen, dose series, 48 h.
For the compound `CCOC(=O)C1=[N+]([O-])OC2=C(O)CCCC21` (stereo not given), the TGI was above 100 µM.
The same measure, in the same setting: as for `CCCCCCCCCCC(C(=O)O)C1(C(=O)O)CCC(=O)O1` (stereo not given), the figure is above 100 µM.
As for `CC(=O)N1C(=O)/C(=C\C(=O)c2ccc([N+](=O)[O-])cc2)c2ccccc21`, the TGI is 32.2 µM.

The subject of another test is OVCAR-4 ovarian. In words: NCI anticancer screen, dose series, 48 h.
`C/C(=N/NC(=S)Nc1ccc([N+](=O)[O-])cc1)c1cccc(/C(C)=N\NC(=S)Nc2ccc([N+](=O)[O-])cc2)n1` registered a TGI of 49.4 µM.
For the compound `CCOC(=O)C1=[N+]([O-])OC2=C(O)CCCC21` (stereo not given), the TGI was above 100 µM.
Still for that read-out and setting: as for `CCCCCCCCCCC(C(=O)O)C1(C(=O)O)CCC(=O)O1` (stereo not given), the figure is above 100 µM.
The same measure, in the same setting: then `CC(=O)N1C(=O)/C(=C\C(=O)c2ccc([N+](=O)[O-])cc2)c2ccccc21`, with 34.5 µM.

For a further test, the system named is OVCAR-5 ovarian. In words: NCI anticancer screen, dose series, 48 h.
`C/C(=N/NC(=S)Nc1ccc([N+](=O)[O-])cc1)c1cccc(/C(C)=N\NC(=S)Nc2ccc([N+](=O)[O-])cc2)n1` returned a TGI of 21.7 µM.
The same measure, in the same setting: then `CCOC(=O)C1=[N+]([O-])OC2=C(O)CCCC21` (stereo not given), with above 100 µM; and `CCCCCCCCCCC(C(=O)O)C1(C(=O)O)CCC(=O)O1` (stereo not given), with above 100 µM; and `CC(=O)N1C(=O)/C(=C\C(=O)c2ccc([N+](=O)[O-])cc2)c2ccccc21`, with above 100 µM.

A further test relates to OVCAR-8 ovarian. Description: NCI anticancer screen, dose series, 48 h.
`CCOC(=O)C1=[N+]([O-])OC2=C(O)CCCC21` (stereo not given) showed a TGI above 100 µM.
In turn, `CCCCCCCCCCC(C(=O)O)C1(C(=O)O)CCC(=O)O1` (stereo not given) yielded a TGI above 100 µM.
The same measure, in the same setting: then `CC(=O)N1C(=O)/C(=C\C(=O)c2ccc([N+](=O)[O-])cc2)c2ccccc21`, with above 100 µM.

The subject of another test is PC-3 prostate. Description: NCI anticancer screen, dose series, 48 h.
`C/C(=N/NC(=S)Nc1ccc([N+](=O)[O-])cc1)c1cccc(/C(C)=N\NC(=S)Nc2ccc([N+](=O)[O-])cc2)n1` had a TGI of 18.7 µM.
On the same count and under the same terms, as for `CCOC(=O)C1=[N+]([O-])OC2=C(O)CCCC21` (stereo not given), the figure is above 100 µM; as for `CCCCCCCCCCC(C(=O)O)C1(C(=O)O)CCC(=O)O1` (stereo not given), above 100 µM; as for `CC(=O)N1C(=O)/C(=C\C(=O)c2ccc([N+](=O)[O-])cc2)c2ccccc21`, 58.4 µM.

The next test relates to RPMI-8226 leukemia. In words: NCI anticancer screen, dose series, 48 h.
For the compound `C/C(=N/NC(=S)Nc1ccc([N+](=O)[O-])cc1)c1cccc(/C(C)=N\NC(=S)Nc2ccc([N+](=O)[O-])cc2)n1`, the TGI is 8.8 µM.
`CCOC(=O)C1=[N+]([O-])OC2=C(O)CCCC21` (stereo not given) gave a TGI above 100 µM.
`CCCCCCCCCCC(C(=O)O)C1(C(=O)O)CCC(=O)O1` (stereo not given) displayed a TGI above 100 µM.

The next test concerns RXF 393 renal. In words: NCI anticancer screen, dose series, 48 h.
For `C/C(=N/NC(=S)Nc1ccc([N+](=O)[O-])cc1)c1cccc(/C(C)=N\NC(=S)Nc2ccc([N+](=O)[O-])cc2)n1`, the TGI came out at 4.73 µM.
`CCOC(=O)C1=[N+]([O-])OC2=C(O)CCCC21` (stereo not given) returned a TGI above 100 µM.
Same read-out and setting: as for `CCCCCCCCCCC(C(=O)O)C1(C(=O)O)CCC(=O)O1` (stereo not given), the figure is above 100 µM; as for `CC(=O)N1C(=O)/C(=C\C(=O)c2ccc([N+](=O)[O-])cc2)c2ccccc21`, above 100 µM.

The subject of a further test is SF-268 CNS. In words: NCI anticancer screen, dose series, 48 h.
With `C/C(=N/NC(=S)Nc1ccc([N+](=O)[O-])cc1)c1cccc(/C(C)=N\NC(=S)Nc2ccc([N+](=O)[O-])cc2)n1`, the TGI is above 100 µM.
With `CCOC(=O)C1=[N+]([O-])OC2=C(O)CCCC21` (stereo not given), the TGI is above 100 µM.
On the same count and under the same terms, then `CCCCCCCCCCC(C(=O)O)C1(C(=O)O)CCC(=O)O1` (stereo not given), with above 100 µM; and `CC(=O)N1C(=O)/C(=C\C(=O)c2ccc([N+](=O)[O-])cc2)c2ccccc21`, with 49.2 µM.

The next test relates to SF-295 CNS. In words: NCI anticancer screen, dose series, 48 h.
As for `C/C(=N/NC(=S)Nc1ccc([N+](=O)[O-])cc1)c1cccc(/C(C)=N\NC(=S)Nc2ccc([N+](=O)[O-])cc2)n1`, the TGI stood at 8.33 µM.
The same measure, in the same setting: then `CCOC(=O)C1=[N+]([O-])OC2=C(O)CCCC21` (stereo not given), with above 100 µM; and `CCCCCCCCCCC(C(=O)O)C1(C(=O)O)CCC(=O)O1` (stereo not given), with above 100 µM.
Regarding `CC(=O)N1C(=O)/C(=C\C(=O)c2ccc([N+](=O)[O-])cc2)c2ccccc21`, the TGI was above 100 µM.

A further test has as its system SF-539 CNS. Description: NCI anticancer screen, dose series, 48 h.
As to `C/C(=N/NC(=S)Nc1ccc([N+](=O)[O-])cc1)c1cccc(/C(C)=N\NC(=S)Nc2ccc([N+](=O)[O-])cc2)n1`, the TGI is 2.28 µM.
`CC(=O)N1C(=O)/C(=C\C(=O)c2ccc([N+](=O)[O-])cc2)c2ccccc21` returned a TGI of 49.8 µM.

The next test relates to SK-MEL-2 melanoma. In words: NCI anticancer screen, dose series, 48 h.
`C/C(=N/NC(=S)Nc1ccc([N+](=O)[O-])cc1)c1cccc(/C(C)=N\NC(=S)Nc2ccc([N+](=O)[O-])cc2)n1` came in with a TGI of 23.6 µM.
The same measure, in the same setting: as for `CCOC(=O)C1=[N+]([O-])OC2=C(O)CCCC21` (stereo not given), the figure is above 100 µM.
